Measurements taken from patent publication US8093393B2, “Cationic ceramides, and analogs thereof, and their use for preventing or treating cancer” (MUSC Foundation for Research Development, priority 2004, dated 2012).
Like-named read-outs stand apart in the source and are kept apart here.

Key:
[1] = system: UM-SCC-1 cells; test: MTT cell survival assay; type: cell-based, human; conditions: UM-SCC-1, 48 hr; read-out: IC50, growth
Procedure: Cell lines and culture conditions. […] Cells were grown in DMEM containing 10% FCS and 1% penicillin/streptomycin at 37° C. in 5% CO2. The Wi-38 human lung fibroblasts were obtained from American Type Culture Collection, and were grown in DMEM as described above. Adult human epidermal keratinocytes were purchased from Cascade Biologics, and were maintained in EpiLife medium with growth supplements as described by the manufacturer.
MTT cell survival assay and isobologram studies. […] Triplicate wells were used for each treatment. The final concentration of DMSO (a solvent for conventional ceramides, GMZ and DOX) in the growth medium was less than 0.1% (v/v) which has no effect on cell growth and survival. Pyridinium ceramides were dissolved in sterile water or growth medium. In short, after cells (5-10×10^3/well) were seeded in 96-well-plates for 24 hr, they were treated with increasing concentrations of ceramide analogs for an additional 48 or 96 hr. For combination treatments, ceramides and chemotherapeutic agents (gemcitabine (GMZ) or doxorubicin (DOX)) were added to the growth medium simultaneously during treatment. Isobologram plots were then constructed using IC50 values of the two agents alone or in combination obtained from MTT assays. […]

[2] = system: telomeres; test: Telomere length (TRF) in tumor tissues; type: in vivo, human; conditions: versus untreated controls
Source text: (§1) FIG. 29. […] In (B), DNA samples obtained from tumors treated with GMZ (G), L-t-C6-Pyr-Cer (Cer), and the combination of L-t-C6-Pyr-Cer with GMZ (G/C, lanes 2-4, respectively) were compared to that of untreated (U) tumors (lane 1). Lanes 5 and 6 contain DNA samples with low (L) and high (H) molecular weight (3.9 and 10.2 kb, respectively) telomeres. In (D) The levels of hTERT protein in samples obtained from tumors treated with GMZ (G), L-t-C6-Pyr-Cer (Cer), and the combination of L-t-C6-Pyr-Cer with GMZ (G/Cer, lanes 2-4, respectively) were determined by Western blot analysis using rabbit polyclonal anti-hTERT antibody, and compared to that of untreated (U) tumors (lane 1). Lanes 5 and 6 contain samples from telomerase positive (+) and negative (−) extracts. Beta-actin levels of these samples were used as loading controls (lanes 1-6, lower panel). The data shown are representative of two independent trials, and error bars represent standard deviations.
Analysis of telomere length in tumor tissues. The measurement of telomere length was performed in total genomic DNA samples isolated from tumor tissues of the SCID mice using Telomere Restriction Fragment (TRF) Length measurement kit (Roche) by Southern blotting as described in Sundararaj, et al. J Biol Chem 2004; 279:6152-6162.

[3] = system: hTERT; test: hTERT mRNA (Q-PCR) and protein (Western blot) in tumor tissues; type: in vivo, human
Source text: as §1, with “Lanes 5 and 6 contain samples from telomerase positive (+) and negative (−) extracts. Beta-actin levels of these samples were used as loading controls (lanes 1-6, lower panel). The data shown are representative of two independent trials, and error bars represent standard deviations.” left out
Determination of telomerase activity, hTERT mRNA and protein levels in tumor tissues. Telomerase activity in tissues was measured by the PCR-based telomere repeat amplification protocol (TRAP) using TRAPeze kit (Invitrogen) which includes a 36-bp internal control to allow quantification of activity. The intensity of telomere-specific DNA bands, measured using Quantity One (BioRad) software, were normalized to the intensity of internal control bands for each sample on polyacrylamide gels for quantification. […] The protein levels of hTERT in these tumor tissue extracts (in CHAPS buffer) were determined by Western blot analysis using anti-hTERT rabbit polyclonal antibody (CalBiochem) at 1:1000 dilution. […]

[4] = system: HNSCC tumors; test: Endogenous ceramide and SM levels in HNSCC tumors, LC/MS; parameters: species or system SCID mice; conditions: mouse, in vivo
Source text: FIG. 28. […] The levels of C14-, C16-, C18-, C24-, C24:1-, dihydro-C16-ceramides, and sphingosine are shown in (A), and C18:1-, C20-ceramides, and dihydro-sphingosine, and sphingosine-1-phosphate levels are shown in (B). The levels of C16-, C22-, C-24 and C24:1-SM levels are shown in (C), and C14-, C18-, C18:1-, C20, C20:1, and C22:1 SM levels are shown in (D).

[5] = system: UM-SCC-22A xenografts; conditions: 40 mg/kg alone or plus GMZ 80 mg/kg, 24 days
Procedure: Treatment of UM-SCC-22A (hypopharynx) xenografts in SCID mice. […] Once the xenograft achieved a standard volume, the animals were randomized to receive no treatment (control), LCL-194 alone (40 mg/kg), LCL-124 alone (40 mg/kg), LCL-124 (40 mg/kg) plus GMZ (80 mg/kg), GMZ (80 mg/kg)+DOX (2 mg/kg), or 5FU plus cisplatin (25 mg/kg each). Tumors were measured every 4 days for 24 days.
The compound was further tested in an animal model of SCID mouse and UM-SCC-22A xenografts (hypopharynx). Xenograft development and treatment was carried out by standard methods. Once the xenograft achieved a standard volume, the animals were randomized to receive no treatment (control), LCL-194 alone (40 mg/kg), LCL-124 alone (40 mg/kg), LCL-124 (40 mg/kg) plus GMZ (80 mg/kg), GMZ (80 mg/kg)+DOX (2 mg/kg), or 5FU plus cisplatin (25 mg/kg each). Tumors were measured every 4 days.

[6] = system: UM-SCC-22A cells; conditions: 1 μM
Procedure: B) The subcellular accumulation of L-t-C6-Pyr-Cer at 1-48 hr was detected by LC/MS in UM-SCC-22A cells after differential centrifugation, as described in Materials and Methods.
Subcellular fractionation, and the analysis of ceramide subspecies by mass spectroscopy (MS). The sub-cellular accumulation of L-t-C6-Pyr-Cer was analyzed by utilizing normal phase high performance liquid chromatography and mass spectroscopy (LC/MS). […] In short, cells were incubated in a buffer containing 300 mM sucrose, 10 mM Hepes (pH 7.4), 1 mM EDTA and 0.5 mM PMSF for 30 minutes on ice. The cells were then passed through 25-gauge needle for 5 strokes, and centrifuged at 1,000×g for 10 mM, 10,000×g for 10 min, and 100,000×g for 60 min at 4° C., for collection of the nuclei-, mitochondria-enriched fractions, and microsomes, respectively.

[7] = system: UM-SCC-14A cells; conditions: read-out: IC50, growth; UM-SCC14A, 48 hr
Procedure: MTT cell survival assay and isobologram studies. The concentrations of agents that inhibited cell growth by 50% (IC50) were determined from cell survival plots obtained by MTT assays. […] A straight line joining points on x- and y-axes represent the IC50 concentrations of GMZ and L-t-C6-Pyr-Cer alone, and the points representing the IC50 concentrations of the combination of the two agents are represented as scatter plots on the same graphs. […] The experiments were performed as triplicates in at least 3 independent experiments.

[8] = BALB/c mice
Procedure: (§2) The determination of MTD, and pharmacokinetic parameters, such as clearance from the serum, and bioaccumulation in various organs, of L-t-C6-Pyr-Cer in vivo. A) MTD of L-t-C6-Pyr-Cer was determined in dose escalation studies, in which BALB/c mice were treated (by IP injections) with increasing concentrations of the compound (10-150 mg/kg), dissolved in sterile saline solution, for 24 hr. […] B and C) The levels of L-t-C6-Pyr-Cer in the serum (B) or in the vital organs (C) of the BALB/c mice were measured by LC/MS after IP injection of the compound for various time points. The experiments were performed in two independent trials as duplicates, and error bars represent standard deviations.
(§3) Animal studies. […] The maximum tolerated dose (MTD) of L-t-C6-Pyr-Cer was determined by dose escalation studies. In short, 7-week-old BALB/c mice were treated with increasing concentrations of the compound for various time intervals. Possible toxicity of the compound to the vital organs of the animals was analyzed by both gross examination, and histopathology. The accumulation of the compound in vital organs and in the serum was also determined by LC/MS as described previously Koybasi S et al. J Biol Chem 2004; 279:44311-44319).

[9] = IP 40 mg/ml
Procedure: as §2, §3

[10] = system: UM-SCC-22A xenografts
Procedure: A) Upper Panel: In vivo therapeutic efficacy of L-t-C6-Pyr-Cer in combination with GMZ was determined in SKID mice harboring the UM-SCC-22A xenografts implanted in both flanks. The animals were treated with L-t-C6-Pyr-Cer and GMZ at 40 mg/kg/each every 4 days for 20 days. […] In these experiments, each group contained 6 mice, harboring 12 tumors, in this study. Error bars represent standard deviations, and p values were calculated. […] C) The blood counts, the levels of serum enzymes, and electrolytes were analyzed in response to L-t-C6-Pyr-Cer alone or in combination with GMZ in SKID mice.
After tumors were grown to about 200-400 mm^3 (about two weeks after implantation), the mice were treated without or with chemotherapeutic agents with intraperitoneal (IP) injection (alone or in combination) at half of their maximum tolerated doses (MTD) every 4 days for 20 days. Tumor volumes and the weights of the animals were measured before each treatment, and tumor sizes were measured at the end of the study. The endpoint was tumor rate of growth and/or tumor volume, which was calculated using the formula: length×width^2×0.52. Each experiment included at least 6 mice (which harbored two SCC tumors in flanks) per each treatment, and experiments were done at least in two independent trials.

CCCCCCCCCCCCC/C=C/[C@H](O)[C@H](CO)NC(=O)CCCCC[n+]1ccccc1.[Br-] [LCL124, L-threo-2-N-[6′-(1″-Pyridinium)-hexanoyl]-sphingosine Bromide]
IC50 [1]: 1000 to 2000 nM
reduction of TRF (telomere) length in tumors [2]: about 500 bp
hTERT mRNA levels in tumors ([3]; Q-PCR): decreased levels of hTERT mRNA and protein expression
hTERT protein levels in tumors ([3]; Western blot): decreased levels of hTERT mRNA and protein expression
effect on endogenous SM levels [4]: no significant changes were observed
effect on endogenous ceramides in tumor site [4]: did not cause any sustained elevation of endogenous ceramides
suppression of xenograft tumor growth [5]: can act alone or in combination with GMZ to suppress growth of chemotherapy-resistant classes of tumors
amount in supernatant or pellet of 100,000×g fractions [6]: either not detectable (at 1-6 hr), or minimal (at 12-48 hr)
level in the 10,000×g (mitochondria enriched) fraction ([6]; 3-48 hr): 1,000-3,000 pmol/0.1 mg protein
level in the 1,000×g (nuclei enriched) fraction ([6]; 6-48 hr): 250-2,500 pmol/0.1 mg protein
IC50 [7]: 1000 to 2000 nM
doses without any detectable toxicity ([8]; 1-4 days): 10 to 80 mg/kg
maximum tolerated dose (MTD) ([8]; IP): 80 mg/kg
toxic concentrations (severe abdominal bloating, intestinal malfunction) ([8]; IP, 24 hr): ≥ 100 mg/kg
single dose resulting in toxicity (abdominal bloating, intestinal malfunction) ([8]; IP, after about 6 hr): 120 to 150 mg/mL
accumulation in the brain or heart [9]: no significant accumulation
accumulation in the kidneys [9]: at high levels in the kidneys within 8-24 hr
time to clearance from the serum [9]: ≤ 4 h
serum level ([9]; 0.5 hr): 4,500 pmol/0.1 ml serum
serum level ([9]; 2 hr): 6,500 pmol/0.1 ml serum
level in the intestines ([9]; after 5 min): about 600 pmol/mg protein
level in the liver ([9]; after 2 hr): ~500 pmol/mg protein
accumulation in the lungs ([9]; after 24 hr): some accumulation
inhibition of HNSCC tumor growth ([10]; 40 mg/kg/each IP every 4 days for 20 days): some inhibition of HNSCC tumor growth
blood counts, serum enzyme activities and electrolytes ([10]; about 20 parameters): no detectable abnormalities
toxicity to vital organs, histopathology ([10]; after completion of the study): no detectable toxicity
level in the intestines (absence of GMZ): about 120 pmol/mg protein
level in the liver (absence of GMZ): ~100 pmol/mg protein
fold higher level in tumors than in intestines or liver (absence or presence of GMZ): 3-6 fold
level in the tumors (combined with GMZ): 3,100 pmol/mg
increase of level in the tumors when combined with GMZ (mouse, in vivo): about 40%
level in the intestines (presence of GMZ): 1,000 pmol/mg protein
level in the liver (presence of GMZ): 300 pmol/mg protein
accumulation in the tumor site (single agent): about 2,200 pmol/mg
